Data as given in patent US9101567B2, “Suppression of cancer growth and metastasis using nordihydroguaiaretic acid derivatives with 7-hydroxystaurosporine” (The Johns Hopkins University, priority 2010, dated 2015).

How the values were obtained:
HIF1α = assay: Western blotting of HIF1α in LNCaP cells under hypoxia; assay type: cell-based, human; details: M4N 80 μM
Source text: LNCaP human prostate cancer, DU145 human prostate cancer, PC3 human prostate cancer, MCF-7 human breast cancer, MDA-MB-231 human breast cancer, MDA-MB-468 human breast cancer, HT29 human colon cancer, K562 human myelogenous leukaemia, HepG2 human hepatoma, Hep3B human hepatoma, and LN229 human glioblastoma cancer cell lines were purchased from American Type Culture Collection (Manassas, Va.). OC24 human ascites ovarian cancer cell line was a generous gift from Dr. XXX (Johns Hopkins University, MD). LNCaP cell line was cultured in RPMI1640 medium supplemented with glucose (14 mM), pyruvate (1 mM), and fetal bovine serum (FBS) (10%). DU145 cell line was cultured in MEM supplemented with non-essential amino acids, glucose (21 mM), pyruvate (1 mM), and FBS (10%). PC3 cell line was cultured in F-12K medium supplemented with FBS (10%). MCF-7 cell line was cultured in DMEM supplemented with FBS (10%). OC24 cell line was cultured in RPMI1640 medium supplemented with FBS (10%) as suspension culture. MDA-MB-231 and 468 cell lines were cultured in Leibovitz's L15 medium supplemented with FBS (10%) under air. HT29 cell line was cultured in DMEM supplemented with glucose (25 mM) and FBS (10%). K562 cell line was cultured in RPMI1640 supplemented with FBS (10%). […] The signals were detected by western blot chemiluminescence reagent plus (New England Nuclear Life Science Products, Boston, Mass.). […]

LNCaP tumors = assay: Nude mice orthotopically implanted with LNCaP tumors: life-span and lung metastasis; assay type: in vivo, nude (nu/nu) mice; details: LNCaP tumor-bearing nude mice; lung sections, hematoxylin and eosin
Method: T-cell deficient male nude mice (nu/nu) were obtained from Charles River Laboratories (Wilmington, Mass.). […] For drug combinations (M4N/etoposide, M4N/rapamycin, and M4N/UCN-01), etoposide, rapamycin, or UCN-01 powder was further added to M4N in CPE 25/30 to make a final concentration of M4N (10 mg/ml) respectively with etoposide (4 mg/ml), rapamycin (3.75 mg/ml), or UCN-01 (884 g/ml) in CPE 25/30 formulation. These drugs were intravenously injected into the tail vein of mice at the daily dose of 0.1 ml per mouse. Therefore dosages of each injection were 1 mg/shot (for M4N), 0.4 mg/shot (for etoposide), 0.375 mg/shot (for rapamycin), and 88.4 μg/shot (for UCN-01). The drug injections were performed once every day; beginning at day 3 until day 31 after tumor inoculation for the combination treatment with either etoposide or rapamycin and until day 25 after tumor inoculation for the combination treatment with UCN-01. After this the drugs were injected once a week for etoposide/rapamycin combination treatment and once every three days until day 35 for UCN-01 combination treatment.
LNCaP cells growing subconfluently were collected into the tissue culture medium without fetal bovine serum and antibiotics. The cell concentration was adjusted by the same medium. […]

Beclin-1 = assay: Western blotting of Beclin-1 in LNCaP cells; assay type: cell-based, human; details: normoxic or hypoxic, 6 or 18 hr, M4N 80 μM
Method: The sample volumes were adjusted by the total protein amount. Protein assay was performed by Bio-Rad Protein Assay (Bio-Rad Laboratories, Inc. Hercules, Calif.). The samples were resolved by the standard SDS-polyacrylamide gel electrophoresis and transferred to nitrocellulose membrane (Amersham Biosciences, Bjorkgatan, Sweden). The membranes were blocked with skim milk, and incubated with primary antibodies at 4° C. overnight and then with secondary antibody conjugated with horse radish peroxidase at room temperature for 2 hrs. The signals were detected by western blot chemiluminescence reagent plus (New England Nuclear Life Science Products, Boston, Mass.). BNIP3 is a member of Bcl-2 family proteins which sends pro-apoptotic signal to mitochondria and induces mitochondrial membrane potential depolarization. […] This implies that BNIP3 is involved in autophagy as well as cell death. […] Since BNIP3 is known to be activated more under hypoxic conditions (24), BNIP3 expression was examined in both normoxic and hypoxic conditions (FIGS. 3A&B). […] Previously it was shown that BNIP3 expression is augmented by hypoxia through both […] (HIF)1α-dependent and nondependent pathways (24).

LC3B = assay: Immunocytochemistry of LC3B (autophagosomes) in LNCaP cells; assay type: cell-based, human; details: 6 hrs, Baflomycin A1 (100 nM), control cells and cells under combination treatments, M4N 80 μM
Source text: […] After permeabilized by 0.2% Tryton X-100 and 1% goat serum diluted in PBS (−), the cells were blocked by PBS (−) containing 5% goat serum.

LC3B-II = assay: Western blotting of LC3B-II (autophagy) in MCF-7 cells; assay type: cell-based, human; details: MCF-7, 15 hrs; M4N 80 μM
Method: The sample volumes were adjusted by the total protein amount. Protein assay was performed by Bio-Rad Protein Assay (Bio-Rad Laboratories, Inc. Hercules, Calif.). The samples were resolved by the standard SDS-polyacrylamide gel electrophoresis and transferred to nitrocellulose membrane (Amersham Biosciences, Bjorkgatan, Sweden). The membranes were blocked with skim milk, and incubated with primary antibodies at 4° C. overnight and then with secondary antibody conjugated with horse radish peroxidase at room temperature for 2 hrs. The signals were detected by western blot chemiluminescence reagent plus (New England Nuclear Life Science Products, Boston, Mass.). The effect of […] on autophagy was examined using the western blotting for LC3B-II in the presence of Baflomycin A1 in MCF-7 and HepG2 cells (FIG. 4D).

## COc1ccc(C[C@@H](C)[C@@H](C)Cc2ccc(OC)c(OC)c2)cc1OC [M4N, Tetra-O-methyl nordihyroguaiaretic acid]
HIF1α; 6 hr exposure to hypoxia
  HIF1α expression: did not have much effect
HIF1α; 18 hr exposure to hypoxia
  HIF1α expression: reduced HIF1α expression
LNCaP tumors
  mice with obvious lung metastasis (histology): 2 out of 4
Beclin-1
  Beclin-1 expression: not affected
LC3B
  net amount of autophagosomes (LC3B staining): reduced the net amount of autophagosomes
LC3B-II
  autophagy (LC3B-II in the presence of Baflomycin A1): blocks autophagy
